Laboratory results: US10118935B2, “Melampomagnolide B dimers” (priority 2014, dated 2018)

What was measured:
CCRF-CEM = experiment: NCI 60 cell line five dose, Leukemia
SNB-75 = experiment: NCI 60 cell line five dose, CNS Cancer
M14 = experiment: NCI 60 cell line five dose, Melanoma
NCI-H23 = experiment: NCI 60 cell line five dose, Non-Small Cell Lung Cancer
SW-620 = experiment: NCI 60 cell line five dose, Colon Cancer
786-0 = experiment: NCI 60 cell line five dose, Renal Cancer
A498 = experiment: NCI 60 cell line five dose, Renal Cancer
OVCAR-5 = experiment: NCI 60 cell line five dose, Ovarian Cancer
SN12C = experiment: NCI 60 cell line five dose, Renal Cancer
BT-549 = experiment: NCI 60 cell line five dose, Breast Cancer
SK-MEL-28 = experiment: NCI 60 cell line five dose, Melanoma; conditions: SK-MEL-28
NCI-H522 = experiment: NCI 60 cell line five dose, Non-Small Cell Lung Cancer
HCC-2998 = experiment: NCI 60 cell line five dose, Colon Cancer
NCI/ADR-RES = experiment: NCI 60 cell line five dose, Ovarian Cancer; conditions: NCI/ADR-RES
RPMI-8226 = experiment: NCI 60 cell line five dose, Leukemia
SF-295 = experiment: NCI 60 cell line five dose, CNS Cancer
DU-145 = experiment: NCI 60 cell line five dose, Prostate Cancer
MDA-MB-231/ATCC = experiment: NCI 60 cell line five dose, Breast Cancer
SK-OV-3 = experiment: NCI 60 cell line five dose, Ovarian Cancer
RXF 393 = experiment: NCI 60 cell line five dose, Renal Cancer
LOX IMVI = experiment: NCI 60 cell line five dose, Melanoma
MOLT-4 = experiment: NCI 60 cell line five dose, Leukemia

`C=C1C(=O)O[C@H]2[C@H]1CC/C(COC(=O)CCC(=O)NCCCCCCCCNC(=O)CCC(=O)OC/C1=C/CC[C@@]3(C)O[C@H]3[C@H]3OC(=O)C(=C)[C@@H]3CC1)=C\CC[C@@]1(C)O[C@@H]21` [JVM 2-87, bis(((1aR,7aS,10aS,10bS,E)-1a-Methyl-8-methylene-9-oxo-1a,2,3,6,7,7a,8,9,10a,1b-decahydrooxireno[2′,3′:9,10]cyclodeca[1,2-b]furan-5-yl)methyl)4,4′-(octane-1,8-diylbis(azanediyl))bis(4-oxobutanoate)] was tested, and the GI50 (CCRF-CEM) was 320 nM, the TGI (CCRF-CEM) was 1480 nM and the GI50 (SNB-75) was 2020 nM. It also gave a TGI (SNB-75) of 7250 nM, a GI50 (M14) of 1790 nM and a TGI (M14) of 3790 nM. The GI50 (NCI-H23) was 2990 nM, the TGI (NCI-H23) was 8250 nM and the GI50 (SW-620) was 1220 nM. For the same compound, the TGI (SW-620) was 2970 nM, the GI50 (786-0) was 1620 nM and the TGI (786-0) was 3290 nM. For the same compound, the GI50 (A498) was 6720 nM, the TGI (A498) was 20800 nM and the GI50 (OVCAR-5) was 1820 nM. It also gave a TGI (OVCAR-5) of 3640 nM, a GI50 (SN12C) of 3740 nM and a TGI (SN12C) of 14800 nM. For the same compound, the GI50 (BT-549) was 1230 nM, the TGI (BT-549) was 2510 nM and the GI50 (SK-MEL-28) was 1650 nM. It also gave a TGI (SK-MEL-28) of 3230 nM, a GI50 (NCI-H522) of 480 nM and a TGI (NCI-H522) of 1800 nM. The GI50 (HCC-2998) was 4120 nM, the TGI (HCC-2998) was 16700 nM and the GI50 (NCI/ADR-RES) was 33500 nM. It also gave a TGI (NCI/ADR-RES) greater than 100000 nM, a GI50 (RPMI-8226) of 1670 nM and a TGI (RPMI-8226) of 5700 nM. It also gave a GI50 (SF-295) of 15100 nM, a TGI (SF-295) of 29300 nM and a GI50 (DU-145) of 1920 nM. For the same compound, the TGI (DU-145) was 3610 nM, the GI50 (MDA-MB-231/ATCC) was 1970 nM and the TGI (MDA-MB-231/ATCC) was 4410 nM. It also gave a GI50 (SK-OV-3) of 6450 nM, a TGI (SK-OV-3) of 19700 nM and a GI50 (HL-60(TB)) of 630 nM. It also gave a TGI (HL-60(TB)) of 3120 nM, a CC50 (HL-60(TB); read-out: LC50) greater than 100000 nM and a GI50 (RXF 393) of 850 nM. For the same compound, the TGI (RXF 393) was 2610 nM, the GI50 (LOX IMVI) was 1370 nM and the TGI (LOX IMVI) was 2760 nM. For the same compound, the GI50 (MOLT-4) was 2110 nM and the TGI (MOLT-4) was 6410 nM.
